Reference: PubChem BioAssay (NCI)
Several values for one entry are separate records, joined by “and”; a condition that tells them apart may be missing. Equal values may be shown once.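 In this assay, cells in 96-well plates receive the compound at five concentrations for 48 hours. Endpoints are linearly interpolated between the surrounding concentrations. Abbreviation: GI50, concentration required for 50% inhibition of growth. TGI denotes the concentration required for complete inhibition of growth.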 Starred links: 1 amine or outer side, 2 acyl side, 3 side chain; linkers in the order of their positions; H or OH if unused. Positions of bridges follow the written chain, without caps; N, C: chain ends. Non-standard residues stand in square brackets, D forms with d. Residues, ends and D or L forms follow the SMILES beside them. Chains are numbered I, II in the order given. Actinocin(1to9) = Cc1c2oc3c(C)ccc(C(=O)[*:2])c3nc-2c(C(=O)[*:1])c(N)c1=O; NMeV = CN[CH](C(=O)O)C(C)C; Sar = CNCC(=O)O

Experiments:
Test in all cases: NCI tumour cell line growth inhibition, 48 h
CAKI-1 renal = system: CAKI-1 renal
COLO 205 colon = system: COLO 205 colon
HS 578T breast = system: HS 578T breast
IGROV1 ovarian = system: IGROV1 ovarian
K-562 leukemia = system: K-562 leukemia
KM12 colon = system: KM12 colon
MCF7 breast = system: MCF7 breast
NCI-H226 lung = system: NCI-H226 lung
NCI-H23 lung = system: NCI-H23 lung
RXF 393 renal = system: RXF 393 renal
SK-MEL-2 melanoma = system: SK-MEL-2 melanoma
SK-OV-3 ovarian = system: SK-OV-3 ovarian
SN12C renal = system: SN12C renal

| Compound | TGI (CAKI-1 renal) [µM] | TGI (COLO 205 colon) [µM] | TGI (HS 578T breast) [µM] | TGI (IGROV1 ovarian) [µM] | TGI (K-562 leukemia) | TGI (KM12 colon) [µM] | TGI (MCF7 breast) [µM] | TGI (NCI-H226 lung) [µM] | TGI (NCI-H23 lung) [µM] | TGI (RXF 393 renal) | TGI (SK-MEL-2 melanoma) [µM] | TGI (SK-OV-3 ovarian) [µM] | TGI (SN12C renal) | GI50 (COLO 205 colon) [µM] | GI50 (HS 578T breast) [µM] | GI50 (KM12 colon) [µM] | GI50 (NCI-H226 lung) [µM] | GI50 (NCI-H23 lung) [µM] | GI50 (SK-MEL-2 melanoma) [µM] | GI50 (SK-OV-3 ovarian) [µM] |
| --- | --- | --- | --- | --- | --- | --- | --- | --- | --- | --- | --- | --- | --- | --- | --- | --- | --- | --- | --- | --- |
| CC(=O)OC1CC[C@@]2(C)C(=CC[C@@H]3[C@@H]2CC[C@]2(C)Nc4nn(S(C)(=O)=O)cc4C[C@@H]32)C1 (stereo partly specified) | > 100 | > 100 | > 100 | > 100 | > 100 µM | 81.8 | 40.7 | 92 | > 100 | 95.3 µM | 58.8 | > 100 | > 100 µM |  |  |  |  |  |  |  |
| O=C(O[C@@H](/C=C/c1ccccc1)P1(=O)N(Cc2ccccc2)[C@H]2CCCC[C@@H]2N1Cc1ccccc1)c1ccccc1 | 11.5 | 3.17 | > 100 | > 100 | > 100 µM | 14.8 | 6.77 | 13.2 | 36 | 7.85 µM | 3.98 | 77.1 | 6.74 µM |  |  |  |  |  |  |  |
| CC(ON(C(c1ccccc1)C(C)C)C(C)(C)C)c1ccccc1 (stereo unspecified) | 55.7 | 32.5 | 64.1 | 59.2 | 49.8 µM | 41.8 | 30 | 36.6 | 63.9 | 31.2 µM | 34.4 | > 100 | 32.5 µM |  |  |  |  |  |  |  |
| CCC(C)C1NC(=O)C(NC(=O)c2c3nc4c(C(=O)NC5C(=O)NC(C(C)CC)C(=O)N6CCCC6C(=O)N(C)CC(=O)N(C)C(C(C)C)C(=O)OC5C)ccc(C)c4oc-3c(C)c(=O)c2N)C(C)OC(=O)C(C(C)C)N(C)C(=O)CN(C)C(=O)C2CCCN2C1=O (stereo unspecified) (I: TIP[Sar][NMeV] / II: TIP[Sar][NMeV]; ester I:1-I:C, II:1-II:C; linker I:N-II:N via Actinocin(1to9); configuration not given here) | 0.0861 | 0.00309 | 0.0841 |  | 0.0109 µM and 0.0132 µM | 0.194 |  |  | 0.0168 | 0.0214 µM and 0.048 µM | 0.00277 | 0.578 | 0.192 µM and 0.263 µM |  |  |  |  |  |  |  |
| COc1cc2oc(=O)ccc2cc1C(=O)CC(C)C | 42.8 | > 100 | > 100 | > 100 | > 100 µM | > 100 | > 100 | > 100 | > 100 |  | > 100 | > 100 | > 100 µM |  |  |  |  |  |  |  |
| N#CC12Cc3cc4c(cc3-c3cccc(c31)CCN2C(=O)c1ccccc1)OCO4 (stereo unspecified) |  | > 100 |  | > 100 | > 100 µM | > 100 |  | > 100 | > 100 | > 100 µM | > 100 | > 100 | > 100 µM |  |  |  |  |  |  |  |
| O=c1c2cc(I)ccc2nc(SCc2nncs2)n1Cc1ccccc1 |  | > 100 | 57.8 | 48.7 | > 100 µM | > 100 | > 100 | > 100 | > 100 | 81.6 µM | 85.5 | > 100 | > 100 µM |  |  |  |  |  |  |  |
| Cc1coc2c1C[C@@]1(C)[C@H](CCC[C@@H]1C)[C@H]2O | > 100 | > 100 | > 100 | 65.4 | > 100 µM | > 100 | 95.7 | 56 | > 100 | 48.8 µM |  | > 100 | 55.5 µM |  |  |  |  |  |  |  |
| CC(O)(Cc1ccccc1C#N)Cc1ccccc1C#N | > 100 | > 100 | > 100 | > 100 | > 100 µM | > 100 | > 100 | > 100 |  | > 100 µM | > 100 | > 100 | > 100 µM |  |  |  |  |  |  |  |
| Cc1cc(C)n(CC(Cn2nc(C)cc2C)=C(/C(Cl)=C(/Cl)Nc2ccc([N+](=O)[O-])cc2)[N+](=O)[O-])n1 | 5.98 | 5.36 | 33.2 | 8.17 | 11.5 µM | 6.55 | 14.3 | 49.4 | 8.03 | 12.3 µM | 11.8 | 14.2 | 17.6 µM |  |  |  |  |  |  |  |
| Nc1c(C(=O)O)nnc2cc(Cl)c(Cl)cc12 | > 100 | > 100 | > 100 | > 100 | > 100 µM | > 100 | > 100 | > 100 | > 100 |  | > 100 | > 100 | > 100 µM |  |  |  |  |  |  |  |
| Cn1cnc([N+](=O)[O-])c1Sc1nc(N)nc2c1ncn2C1OC(CO)C(O)C1O (stereo unspecified) | > 100 | 23.8 | > 100 | > 82.1 | > 100 µM | 32.7 |  | > 89.3 | 41.4 | 21.6 µM | 21.1 | 45.5 | > 100 µM |  |  |  |  |  |  |  |
| CC(C)(C)OC(=O)NC(CCCCNC(=O)OCc1ccccc1)C(=O)NCCNc1ccc(NCCNC(=O)C(CCCCNC(=O)OCc2ccccc2)NC(=O)OC(C)(C)C)c2c1C(=O)c1ccccc1C2=O (stereo unspecified) | > 100 | > 100 | > 49.7 | > 100 | > 100 µM | > 100 | 27.2 | > 100 | > 100 | 88.9 µM | 20.5 | > 90.1 | > 100 µM |  |  |  |  |  |  |  |
| CC(C)(C)OC(=O)n1c2ccccc2c2c(=O)nc(N3CCCCC3)sc21 | > 100 | > 100 | > 100 | > 100 | > 100 µM | > 100 |  |  | > 100 |  | > 100 | > 100 | > 100 µM |  |  |  |  |  |  |  |
| CN(C)c1ccc(C=Nc2ccc(Oc3ccc(Cl)cc3)c(Cl)c2)cc1 | 67.2 | 45.2 | 33.2 | 85.1 |  | 34.2 | > 100 | 63.4 | 39.9 |  | 37.4 | 55.9 | 43.6 µM |  |  |  |  |  |  |  |
| OCc1cn(C(c2ccccc2)(c2ccccc2)c2ccccc2)cn1 | > 100 | > 100 | 95.7 | > 100 | > 100 µM |  |  | > 100 | > 100 |  | > 100 | > 100 | > 100 µM |  |  |  |  |  |  |  |
| COc1ccc(C2NC(=S)Nc3c2c(=O)oc2c3ccc3ccccc32)cc1 (stereo unspecified) | > 100 | > 100 | > 100 | > 100 | > 100 µM | > 100 | > 100 | > 100 | > 100 | > 100 µM | > 100 | > 100 | > 100 µM |  |  |  |  |  |  |  |
| COCCNCc1ccc(-c2cc3nccc(Oc4ccc(NC(=S)NC(=O)Cc5ccc(F)cc5)cc4F)c3s2)nc1 |  | 4.3 | 4.91 |  |  | 2 |  | 6.48 | 4.63 |  | 19.1 | 34.4 |  | 2.02 | 1.81 | 0.328 | 1.98 | 1.51 | 6.01 | 18.5 |
| CN(C)c1ccc(C=Nc2ccc(-c3nc4ccccc4[nH]3)cc2)cc1 | > 100 | > 100 | > 100 | > 100 | > 100 µM | > 100 | > 100 | > 100 | > 100 | 80 µM | > 100 | > 100 | > 100 µM |  |  |  |  |  |  |  |
| Clc1ccccc1/C=c1\nc(-c2ccccc2)n2c1nc1ccccc12 | > 100 | > 100 | > 100 | > 100 | > 100 µM | > 100 | > 100 | > 100 | 47.8 | 41.9 µM | > 100 | 71.7 | > 100 µM |  |  |  |  |  |  |  |
| Cn1c(=O)[nH]c2nncnc2c1=O | 46.5 | 501 |  | 133 | > 519 µM | > 353 | > 501 | 28.7 | 420 | 123 µM | 312 | 498 | > 497 µM |  |  |  |  |  |  |  |
| O=c1[nH]c2nnc(COc3ccc(Cl)cc3Cl)n2nc1Cc1ccccc1 | > 100 | > 100 | > 100 | 76.6 | > 100 µM | > 100 | > 100 | 67.5 | > 100 | 44.6 µM | > 100 | 58.8 | > 100 µM |  |  |  |  |  |  |  |
| O=C(CSc1nc2ccc([N+](=O)[O-])cc2s1)c1ccc2ccccc2c1 | > 100 | > 100 | > 100 | > 100 | > 100 µM | > 100 | > 100 | > 100 | > 100 | > 100 µM | > 100 | > 100 | > 100 µM |  |  |  |  |  |  |  |
| C[N+]1(CCC(=O)c2ccco2)CC2CCC(CC2)C1 (stereo unspecified) | > 100 | > 100 | > 100 | > 100 | > 100 µM | > 100 | > 100 | > 100 | > 100 | > 100 µM | > 100 |  | > 100 µM |  |  |  |  |  |  |  |
| COc1ccc2nc3c(C(=O)NCCN(C)C)cccc3cc2c1 |  | 3.74 |  | 6.77 | 17.1 µM | 13 | 7.22 | 4.14 | 5.09 | 5.28 µM | 5.44 | 7.3 | 6.93 µM |  |  |  |  |  |  |  |
| COc1c(CC=C(C)C)c(O)c(C(CC(C)C)c2c(O)c3c(c(C(C)=O)c2O)OC(C(C)(C)O)C3)c(O)c1C(C)=O (stereo unspecified) | > 12.5 | 8.38 | > 12.5 | > 12.5 | 9.11 µM | > 12.5 | 9.87 |  | 8.9 | 10.9 µM | > 12.5 | > 12.5 | > 12.5 µM |  |  |  |  |  |  |  |
| O=c1ccc2nc3cc(Br)ccc3sc-2c1 | > 100 | > 100 |  | > 100 | > 100 µM | > 100 |  | > 100 | > 100 |  | > 100 | > 100 | > 100 µM |  |  |  |  |  |  |  |
| O=c1[nH]c(Nc2ccc(Cl)c(C(F)(F)F)c2)nc2nc[nH]c12 | > 100 | > 100 | > 100 | > 100 | > 100 µM | > 100 | > 100 | > 100 | > 100 | > 100 µM | 91.2 | > 100 | > 100 µM |  |  |  |  |  |  |  |
| c1ccc(-c2nnn3c2NC2=C(CCCC2)C3c2ccccc2)cc1 (stereo unspecified) | 38.8 | 30.2 | 81.7 | 40.2 | 29.2 µM | 31.2 | 51.9 | > 100 | 69.4 | 34.9 µM | 36 | 50.7 | 51.1 µM |  |  |  |  |  |  |  |
| CC1=CC(=O)CC(C)(C)C1/C=C/C(C)=C/C=C/C(C)=C/C=C/C=C(C)/C=C/C=C(C)/C=C/C1C(C)=CC(=O)CC1(C)C (stereo unspecified) | > 100 |  | > 100 | > 100 | > 100 µM | > 100 | > 100 | > 100 | > 100 | > 100 µM | > 100 | > 100 |  |  |  |  |  |  |  |  |
